Patent US12258370B2, “Betulastatin compounds” (Arizona Board of Regents on behalf of Arizona State …, priority 2017, dated 2025)
Values after ≈ are worked out from the molar mass of the structure shown.

Assays:
Assay type in all cases: cell-based
MCF-7 (breast) = assay: Sulforhodamine B human cancer cell growth inhibition, MCF-7; settings: compounds in DMSO, 48 h; for Gl50 Growth Inhibition, MCF-7: MCF-7 breast cell line; for IC50: Homo sapiens, MCF7, MCF-7 breast cell line, read-out: Gl50 Growth Inhibition, MCF-7
Experimental: (§1) Cancer Cell Line Procedures. Inhibition of human cancer cell growth was assessed using the standard sulforhodamine B assay of the U.S. National Cancer Institute, as previously described.^15 To begin, cells in a 5% fetal bovine serum/RPMI1640 medium were inoculated in 96-well plates and incubated for 24 h. Next, serial dilutions of the compounds were added. After 48 h, the plates were fixed with trichloroacetic acid, stained with sulforhodamine B, and read with an automated microplate reader.

SF-268 (CNS) = assay: Sulforhodamine B human cancer cell growth inhibition, SF-268; settings: SF-268 CNS cell line, compounds in DMSO, 48 h; for IC50: Homo sapiens, read-out: Gl50 Growth Inhibition, SF-268
Experimental: as §1

BXPC-3 (pancreas) = assay: Sulforhodamine B human cancer cell growth inhibition, BXPC-3; settings: BXPC-3 pancreas cell line, compounds in DMSO, 48 h; for IC50: Homo sapiens, read-out: Gl50 Growth Inhibition, XPC-3
Experimental: as §1

NCI-H460 (lung) = assay: Sulforhodamine B human cancer cell growth inhibition, NCI-H460; settings: NCI-H460 lung cell line, compounds in DMSO, 48 h; for IC50: Homo sapiens, read-out: Gl50 Growth Inhibition, NCI-H460
Experimental: as §1

KM20L2 (colon) = assay: Sulforhodamine B human cancer cell growth inhibition, KM20L2; settings: compounds in DMSO, 48 h; for Gl50 Growth Inhibition, KM20L2: KM20L2 colon cell line; for IC50: Homo sapiens, KM-20L2, KM20L2 colon cell line, read-out: Gl50 Growth Inhibition, KM20L2
Experimental: as §1

DU-145 (prostate) = assay: Sulforhodamine B human cancer cell growth inhibition, DU-145; settings: DU-145 prostate cell line, compounds in DMSO, 48 h; for IC50: Homo sapiens, read-out: Gl50 Growth Inhibition, DU-145
Experimental: as §1

SMILES	Gl50 Growth Inhibition, MCF-7 (MCF-7 (breast)) [µg/mL]	Gl50 Growth Inhibition, SF-268 (SF-268 (CNS)) [µg/mL]	Gl50 Growth Inhibition, XPC-3 (BXPC-3 (pancreas)) [µg/mL]	Gl50 Growth Inhibition, NCI-H460 (NCI-H460 (lung)) [µg/mL]	Gl50 Growth Inhibition, KM20L2 (KM20L2 (colon)) [µg/mL]	Gl50 Growth Inhibition, DU-145 (DU-145 (prostate)) [µg/mL]	IC50 (MCF-7 (breast)) [µg/mL]	IC50 (SF-268 (CNS)) [µg/mL]	IC50 (BXPC-3 (pancreas)) [µg/mL]	IC50 (NCI-H460 (lung)) [µg/mL]	IC50 (KM20L2 (colon)) [µg/mL]	IC50 (DU-145 (prostate)) [µg/mL]
C=C(C)[C@@H]1CC[C@]2(COC(C)=O)CC[C@]3(C)[C@H](CC[C@@H]4[C@@]5(C)CCC(N)C(C)(C)[C@@H]5CC[C@]43C)[C@@H]12 (single isomer, unassigned) [Compound 9a, 3-α/β-Amino-28-O-acetyl-betulin]	2.1	1.2	>10	6.0	3.0	1.3	–	–	–	–	–	–
C=C(CNC(=O)[C@H](C)[C@@H](OC)[C@@H]1CCCN1C(=O)OC(C)(C)C)[C@@H]1CC[C@]2(CO)CC[C@]3(C)[C@H](CC[C@@H]4[C@@]5(C)CC[C@H](O)C(C)(C)[C@@H]5CC[C@]43C)[C@@H]12 [Compound 15a, 30-N-(Boc-dap)-betulin]	9.0	>10	>10	>10	>10	>10	–	–	–	–	–	–
C=C(C)[C@@H]1CC[C@]2(/C=N/O)CC[C@]3(C)[C@H](CC[C@@H]4[C@@]5(C)CC[C@H](OC(C)=O)C(C)(C)[C@@H]5CC[C@]43C)[C@@H]12 [Compound 2, 3-O-Acetyl-28-oxime-betulin]	4.5	13.2	15.5	4.1	5.1	>10	–	–	–	–	–	–
C=C(C)[C@@H]1CC[C@]2(COC(C)=O)CC[C@]3(C)[C@H](CC[C@@H]4[C@@]5(C)CC[C@H](NC(=O)[C@H](C)[C@@H](OC)[C@@H]6CCCN6C(=O)C[C@@H](OC)[C@H]([C@@H](C)CC)N(C)C(=O)[C@@H](NC(=O)[C@H](C(C)C)N(C)C)C(C)C)C(C)(C)[C@@H]5CC[C@]43C)[C@@H]12 [Compound 11a, 3β-Amino-N-(Dap-Dil-Val-Dov)-28-O-acetyl-betulin]	4.1	3.8	10.0	>10	7.0	2.5	–	–	–	–	–	–
C=C(C)[C@@H]1CC[C@]2(CNC(=O)[C@H](C)[C@@H](OC)C3CCCN3C(=O)OC(C)(C)C)CC[C@]3(C)C(CCC4[C@@]5(C)CC[C@H](OC(C)=O)C(C)(C)C5CC[C@]43C)C12 (stereo partly drawn) [Compound 5, 3-O-Acetyl-28-amino-N-(Boc-dap)-betulin]	–	–	–	–	–	–	> 10	> 10	> 10	> 10	> 10	> 10
C=C(C)[C@@H]1CC[C@]2(C=O)CC[C@]3(C)[C@H](CC[C@@H]4[C@@]5(C)CC[C@H](OC(C)=O)C(C)(C)[C@@H]5CC[C@]43C)[C@@H]12 [Compound 1, 3-O-Acetyl-28-betulinal]	>10	>10	>10	>10	>10	>10	–	–	–	–	–	–
C=C(CBr)[C@@H]1CC[C@]2(COC(C)=O)CC[C@]3(C)[C@H](CC[C@@H]4[C@@]5(C)CC[C@H](OC(C)=O)C(C)(C)[C@@H]5CC[C@]43C)[C@@H]12 [Compound 12, 3,28-Di-O-acetyl-30-bromo-betulin]	>10	>10	>10	>10	>10	>10	–	–	–	–	–	–
C=C(CNC(=O)[C@H](C)[C@@H](OC)[C@@H]1CCCN1C(=O)C[C@@H](OC)[C@H]([C@@H](C)CC)N(C)C(=O)[C@@H](NC(=O)[C@H](C(C)C)N(C)C)C(C)C)[C@@H]1CC[C@]2(COC(C)=O)CC[C@]3(C)[C@H](CC[C@@H]4[C@@]5(C)CC[C@H](OC(C)=O)C(C)(C)[C@@H]5CC[C@]43C)[C@@H]12 [Compound 16a, 30-N-(Dap-Dil-Val-Dov)-3,28-di-O-acetoxy-betulin]	6.3	4.0	8.0	>10	4.0	3.0	–	–	–	–	–	–
C=C(CNC(=O)[C@H](C)[C@@H](OC)[C@@H]1CCCN1C(=O)OC(C)(C)C)[C@@H]1CC[C@]2(COC(C)=O)CC[C@]3(C)[C@H](CC[C@@H]4[C@@]5(C)CC[C@H](OC(C)=O)C(C)(C)[C@@H]5CC[C@]43C)[C@@H]12 [Compound 15b, 30-N-(Boc-dap)-3, 28-di-O-acetoxy-betulin]	>10	5.9	>10	>10	7.0	>10	–	–	–	–	–	–
C=C(C)[C@@H]1CC[C@]2(COC(C)=O)CC[C@]3(C)C(CCC4[C@@]5(C)CC/C(=N/O)C(C)(C)[C@@H]5CC[C@]43C)[C@@H]12 (stereo partly drawn) [Compound 8, 3-Oxime-28-O-acetyl-betulin]	–	–	–	–	–	–	5.9 (≈ 11.9 µM)	> 10	10.4 (≈ 20.9 µM)	> 10	14.1 (≈ 28.3 µM)	> 10
C=C(C)[C@@H]1CC[C@]2(CNC(=O)[C@H](C)[C@@H](OC)[C@@H]3CCCN3C(=O)C[C@@H](OC)[C@H]([C@@H](C)CC)N(C)C(=O)[C@@H](NC(=O)[C@H](C(C)C)N(C)C)C(C)C)CC[C@]3(C)[C@H](CC[C@@H]4[C@@]5(C)CC[C@H](OC(C)=O)C(C)(C)[C@@H]5CC[C@]43C)[C@@H]12 [Compound 7a, 3-O-Acetyl-28-amino-N-(Dap-Dil-Val-Dov)-betulin]	3.6	2.6	4.1	4.2	2.4	3.7	–	–	–	–	–	–
C=C(C)[C@@H]1CC[C@]2(CN)CC[C@]3(C)C(CCC4[C@@]5(C)CC[C@H](OC(C)=O)C(C)(C)C5CC[C@]43C)C12 (stereo partly drawn) [Compound 3, 3-O-Acetyl-28-aminobetulin]	–	–	–	–	–	–	1.8 (≈ 3.72 µM)	1.8 (≈ 3.72 µM)	1.9 (≈ 3.93 µM)	1.9 (≈ 3.93 µM)	1.9 (≈ 3.93 µM)	1.8 (≈ 3.72 µM)
